Biological target: T1, ACO2 (Arabidopsis thaliana, UniProt Q94A28)
T1 construct: untagged recombinant from pET15b (NcoI-XhoI), E. coli BL21(DE3); forward primer encodes start MASEHSY (transit peptide removed)
T1 sequence (Q94A28 98-995): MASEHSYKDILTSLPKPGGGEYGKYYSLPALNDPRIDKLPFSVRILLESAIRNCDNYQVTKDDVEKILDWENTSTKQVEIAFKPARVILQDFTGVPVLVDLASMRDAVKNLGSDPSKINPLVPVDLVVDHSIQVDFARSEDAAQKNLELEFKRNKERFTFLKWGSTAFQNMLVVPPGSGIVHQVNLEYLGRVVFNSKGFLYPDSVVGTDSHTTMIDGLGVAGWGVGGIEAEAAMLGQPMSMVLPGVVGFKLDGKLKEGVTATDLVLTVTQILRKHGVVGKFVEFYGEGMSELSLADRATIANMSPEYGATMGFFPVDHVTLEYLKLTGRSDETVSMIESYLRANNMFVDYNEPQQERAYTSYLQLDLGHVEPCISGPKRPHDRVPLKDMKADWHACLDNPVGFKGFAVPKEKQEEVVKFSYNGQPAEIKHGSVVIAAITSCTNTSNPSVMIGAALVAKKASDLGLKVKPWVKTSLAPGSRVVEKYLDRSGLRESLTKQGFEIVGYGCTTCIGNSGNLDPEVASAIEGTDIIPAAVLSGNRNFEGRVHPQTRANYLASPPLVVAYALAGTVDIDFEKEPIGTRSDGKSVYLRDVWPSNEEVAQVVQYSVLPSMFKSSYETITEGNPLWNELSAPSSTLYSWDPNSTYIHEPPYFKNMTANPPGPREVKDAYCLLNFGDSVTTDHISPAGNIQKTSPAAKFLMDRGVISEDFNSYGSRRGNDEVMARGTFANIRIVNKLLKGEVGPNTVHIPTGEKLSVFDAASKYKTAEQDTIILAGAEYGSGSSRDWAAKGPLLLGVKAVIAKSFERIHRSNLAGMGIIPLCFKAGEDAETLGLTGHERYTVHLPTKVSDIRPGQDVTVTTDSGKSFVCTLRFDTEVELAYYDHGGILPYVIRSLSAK
Assay: absorbance at […] nm
Type: biochemical
Conditions: from citrate or isocitrate; [4Fe-4S]-loaded enzyme

O=C(O)/C=C(/CC(=O)O)C(=O)O [cis-aconitate] was tested, and the “absorbance at 240 nm” value was “following the formation of cis-aconitate from citrate or isocitrate”.

— PMC7939391, “[4Fe-4S] cluster trafficking mediated by Arabidopsis mitochondrial ISCA and NFU proteins” (The Journal of Biological Chemistry, 2021)
